Assay results reported in publication PMC12609579, “Acute Myeloid Leukemia: A Key Role of DGKα and DGKζ in Cell Viability” (Cells, 2025).
Like-named read-outs stand apart in the source and are kept apart here.

Tests used:
[1] = test system: Peripheral blood lymphocytes (PBLs); experiment: alamarBlue cell viability assay, PBLs from healthy donors; format: cell-based, human; conditions: for IC50: Homo sapiens, Lymphocyte, PBLs from healthy donors
Experimental: These four cell lines were employed in this study as in vitro models of AML, cell line identity was verified through a Cell Line Authentication Test conducted by Eurofins Genomics (Ebersberg, Germany) or by the internal university service. The resulting markers matched 100% with those reported in the ATCC database. […] L. Manzoli (Bologna, Italy), is reported as K562-related, differing from K526 by a single marker. Cells were cultured in RPMI-1640 medium (ThermoFisher Scientific, Waltham, MA, USA) supplemented with 10% heat-inactivated fetal bovine serum (FBS) and 1% penicillin-streptomycin, following the handling protocols provided by ATCC (Manassas, VA, USA). Additionally, healthy donor blood samples were provided by the UPO biobank under approved Ethical Committee authorization (Comitato Etico Interaziendale A.O.U. Maggiore della Carità 865/CE-CE206/2022 date 24 October 2022) and with informed consent for research use. Peripheral blood mononuclear cells were isolated by density gradient centrifugation using Ficoll-Paque PLUS (GE 14 Healthcare, Chicago, IL, USA), washed, and resuspended at a concentration of 2 × 10^6 cells/mL in RPMI-1640 medium containing 10% heat-inactivated FBS. Peripheral blood lymphocytes (PBLs) were selected by the treatment with 1 μg/mL anti-CD3 (clone OKT3) and anti-CD28 (clone CD28.2) human antibodies for 72 h. […]
The alamarBlue assay was performed to assess cell viability in presence of chemical inhibitors. […] The fluorescence of the samples was measured 24 h later using a Spark 10 M Multimode Plate Reader (Tecan, Switzerland) with excitation and emission wavelengths of 535 nm and 590 nm, respectively. For dose–response curve fitting, fluorescence values were normalized according to the following formula:Viability (%) = [(sample mean fluorescence)/(DMSO control mean fluorescence)] ∗ 100
Data are the results of at least five independent experiments analyzed with GraphPad Prism 10 as [inhibitor] vs. normalized response curve (variable slope, after manual outlier removal). […]

HL-60 cells = experiment: Annexin V-FITC/7AAD apoptosis/necrosis flow cytometry, HL-60; format: cell-based, human; conditions: HL-60, 24 h
Experimental: To determine the type of cell death, apoptotic and necrotic cells were detected by flow cytometry using the Apoptosis Detection Kit Annexin V-FITC (Invitrogen, Carlsbad, CA, USA). For each sample, 500,000 cells, pretreated for 24 h, were stained according to manufacturer’s instructions, using 7-aminoactinomycin D (7AAD) instead of propidium iodide. Samples were analyzed on a BD FACS Symphony A5 flow cytometer (Franklin Lakes, NJ, USA) using BD FACSDiva 9.1 software. Data were gated based on FSC-A vs. FSC-H to exclude cell doublets and FSC-A vs. SSC-A to exclude debris. Different populations were identified as: live (Annexin V− and 7AAD−), necrotic (Annexin− and 7AAD+), early apoptotic (Annexin V+ and 7AAD−) and late apoptotic (Annexin+ and 7AAD+). Data are shown as mean ± SD of at least three independent experiments analyzed by GraphPad Prism 10 (control vs. [inhibitor]).

Kasumi-1 = test system: Kasumi-1; design: method as in PMID 37392305; conditions: read-out: IC50 (cytotoxic effects), cited from earlier work
KG-1α = test system: KG-1α; design: method as in PMID 37392305; conditions: read-out: IC50 (cytotoxic effects), cited from earlier work
[2] = test system: normal hematopoietic stem cell samples; design: method as in PMID 37392305; conditions: 40 μM; cited from earlier work
[3] = concentration close to IC50, representative plot

## Cc1nc2sccn2c(=O)c1CCN1CCC(=C(c2ccc(F)cc2)c2ccc(F)cc2)CC1 [ritanserin]
[1]; 24 h
  IC50: 42.9 ± 1.3 µM
[1]; 72 h
  IC50: 32.5 ± 1.9 µM
[1]; untransformed PBLs, 50 μM
  cell death of IL-2 stimulated proliferating PBLs: complete cell death
HL-60 cells; [3]
  Early apoptotic (Annexin V+ 7AAD-): 3.3%
  Late apoptotic (Annexin+ 7AAD+): 62.9%
  Live cells (Annexin V- 7AAD-): 33.8%
  Necrotic (Annexin- 7AAD+): 0%
HL-60 cells; concentration near IC50
  modality of cell death: late apoptosis
Kasumi-1; Kasumi-1, 24 h
  IC50: 51 µM
Kasumi-1; Kasumi-1, 72 h
  IC50: 30 µM
KG-1α; 24 h
  IC50: 38 µM
KG-1α; 72 h
  IC50: 26 µM
[2]
  apoptosis, % of cells: below 30%
